Experimental data reported in patent publication US9108921B2, “Therapeutic compounds and compositions” (AGIOS PHARMACEUTICALS, INC, priority 2014, dated 2015).

Tests used:
Assay type in all cases: biochemical
[1] = molecular target: PKR R510Q (Homo sapiens, UniProt P30613, R510Q); assay: PKR Mutant Assay, AC50 against PKR R510Q; conditions: mutant PKR R510Q enzyme
Method: (§1) • PKR or PKR mutant enzyme solution was diluted in assay buffer. • 2 μL of test compound was added into wells first, and then 180 μL reaction mix was added. • Reactions mixture with test compound was assembled except for ADP, and plates were stored for 60 minutes at room temperature. • 20 uL ADP was added to start reaction at room temperature and reaction progress was measured as changes in absorbance at 340 nm wavelength at room temperature.
(§2) Test Compound Preparation: • Test compound stock was made at 100× concentration in 100% DMSO (10 mM) • 1 to 3 dilutions were made for 11 points (i.e. 50 μl of first concentration added to 100 μl 100% DMSO to yield 3.33 mM, 50 μl of this added to 100 μl DMSO to yield 1.11 mM, and so forth) • 1 to 100 dilution into assay (2 μl in 200 μl) yielded starting concentration of 100 μM, decreasing 3 fold for 11 points. Assay Buffer: 100 mM KCl, 50 mM Tris 7.5, 5 mM MgCl2, 1 mM DTT, 0.03% BSA Reaction Mixture: PKR mutant enzyme: 80-400 ng/well; ADP: 0.22-1.65 mM; PEP: 0.1-0.5 mM; NADH: 180 uM; LDH: 0.5 units (Sigma#59023); DTT: 1 mM; BSA: 0.03%.

[2] = molecular target: PKR R532W (Homo sapiens, UniProt P30613, R532W); assay: PKR Mutant Assay, AC50 against PKR R532W; conditions: mutant PKR R532W enzyme
Method: as §1, §2

[3] = molecular target: PKR WT (Homo sapiens, UniProt P30613); assay: PKR WT enzymatic AC50 assay; conditions: wild type PKR
Method: as §1, §2

PKR R532W, sequence (P30613 whole entry R532W): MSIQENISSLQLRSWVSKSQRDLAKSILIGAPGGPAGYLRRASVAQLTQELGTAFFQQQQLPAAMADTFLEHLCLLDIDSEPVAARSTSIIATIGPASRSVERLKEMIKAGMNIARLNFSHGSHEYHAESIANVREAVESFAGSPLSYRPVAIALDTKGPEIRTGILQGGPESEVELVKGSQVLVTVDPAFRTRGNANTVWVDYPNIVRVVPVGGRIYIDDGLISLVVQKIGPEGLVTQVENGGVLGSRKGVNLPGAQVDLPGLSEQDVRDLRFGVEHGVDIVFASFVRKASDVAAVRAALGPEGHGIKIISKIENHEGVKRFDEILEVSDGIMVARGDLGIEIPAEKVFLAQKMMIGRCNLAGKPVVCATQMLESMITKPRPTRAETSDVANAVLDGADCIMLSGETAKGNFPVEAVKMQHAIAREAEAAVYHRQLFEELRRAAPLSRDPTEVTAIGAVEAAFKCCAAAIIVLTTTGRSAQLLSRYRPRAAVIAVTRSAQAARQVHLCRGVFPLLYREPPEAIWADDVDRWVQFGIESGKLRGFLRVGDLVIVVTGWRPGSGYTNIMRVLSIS
PKR WT, sequence (P30613 whole entry): as the sequence (P30613 whole entry R532W) above, with W532R counted along it
PKR R510Q, sequence (P30613 whole entry R510Q): as the sequence (P30613 whole entry R532W) above, with R510Q, W532R counted along it

O=C(c1ccc(NS(=O)(=O)c2cccc3cccnc23)cc1)N1CCC(C(=O)O)(c2ccccc2)CC1 [Compound 320]
AC50 [1]: > 10000 nM
AC50 [2]: > 10000 nM
AC50 [3]: > 10000 nM

CC(C)CC1(O)CCN(C(=O)c2ccc(NS(=O)(=O)c3cccc4cccnc34)c(C(F)F)c2)CC1 [Compound 258]
AC50 [1]: 101 to 1000 nM
AC50 [2]: 101 to 1000 nM
AC50 [3]: 101 to 1000 nM

O=C(c1ccc(NS(=O)(=O)c2cccc(Cl)c2)cc1)N1CCC(O)(Cc2ccccc2)CC1 [Compound 281]
AC50 [2]: 101 to 1000 nM
AC50 [3]: 101 to 1000 nM

O=C(c1ccc(NS(=O)(=O)Cc2ccccn2)cc1)N1CCC(O)(c2ccccc2Cl)CC1 [Compound 322]
AC50 [1]: > 10000 nM
AC50 [2]: > 10000 nM
AC50 [3]: > 10000 nM

O=C(c1ccc(NS(=O)(=O)c2cccc3cnccc23)cc1)N1CCC(O)(Cc2ccccc2)CC1 [Compound 283]
AC50 [1]: 1010 to 10000 nM
AC50 [2]: 101 to 1000 nM
AC50 [3]: 101 to 1000 nM

O=C(c1ccc(NS(=O)(=O)c2cccc(OC(F)(F)F)c2)cc1)N1CCC(O)(Cc2ccccc2)CC1 [Compound 307]
AC50 [1]: > 10000 nM
AC50 [2]: 1010 to 10000 nM
AC50 [3]: 1010 to 10000 nM

O=C(c1ccc(NS(=O)(=O)c2ccc(C(F)(F)F)cc2)cc1)N1CCC(O)(Cc2ccccc2)CC1 [Compound 321]
AC50 [2]: > 10000 nM
AC50 [3]: > 10000 nM

O=C(c1ccc(NS(=O)(=O)c2cccc3scnc23)cc1)N1CCC(O)(COCC(F)(F)F)CC1 [Compound 386, N-(4-(4-hydroxy-4-((2,2,2-trifluoroethoxy)methyl)piperidine-1-carbonyl)phenyl)benzo[d]thiazole-4-sulfonamide]
AC50 [1]: 101 to 1000 nM
AC50 [2]: 101 to 1000 nM
AC50 [3]: 101 to 1000 nM

Nc1nc2cc(S(=O)(=O)Nc3ccc(C(=O)N4CCC(O)(c5ccccc5Cl)CC4)cc3)c(F)cc2s1 [Compound 418]
AC50 [1]: > 10000 nM
AC50 [2]: > 10000 nM
AC50 [3]: 1010 to 10000 nM

CC(O)CC1(O)CCN(C(=O)c2ccc(NS(=O)(=O)c3cccc4cccnc34)cc2)CC1 (stereo not drawn) [Compound 275]
AC50 [1]: 1010 to 10000 nM
AC50 [2]: 101 to 1000 nM
AC50 [3]: 101 to 1000 nM

O=C(c1c(F)cc(NS(=O)(=O)c2cccc3cccnc23)cc1F)N1CCC(O)(c2ccccc2Cl)CC1 [Compound 232, N-(4-(4-(2-chlorophenyl)-4-hydroxypiperidine-1-carbonyl)-3,5-difluorophenyl)quinoline-8-sulfonamide]
AC50 [1]: 101 to 1000 nM
AC50 [2]: 101 to 1000 nM
AC50 [3]: 101 to 1000 nM

CC(C)CC1(O)CCN(C(=O)c2ccc(NS(=O)(=O)c3cnc(O)c4cccnc34)cc2)CC1 [Compound 416]
AC50 [2]: > 10000 nM
AC50 [3]: 1010 to 10000 nM

Cc1nc2c(S(=O)(=O)Nc3ccc(C(=O)N4CCC(O)(CC(C)C)CC4)cc3)cccc2o1 [Compound 384, N-(4-(4-hydroxy-4-isobutylpiperidine-1-carbonyl)phenyl)-2-methylbenzo[d]oxazole-4-sulfonamide]
AC50 [1]: 101 to 1000 nM
AC50 [2]: 101 to 1000 nM
AC50 [3]: 101 to 1000 nM

O=C(c1ccc(NS(=O)(=O)c2cccc3cccnc23)cc1)N1CCC(O)(/C=C/C(F)F)CC1 [Compound 200]
AC50 [1]: 101 to 1000 nM
AC50 [2]: 101 to 1000 nM
AC50 [3]: < 100 nM

O=C(c1ccc(NS(=O)(=O)c2cccc3cccnc23)cc1)N1CCC(CO)(c2ccccc2)CC1 [Compound 238]
AC50 [1]: 1010 to 10000 nM
AC50 [2]: 101 to 1000 nM
AC50 [3]: 101 to 1000 nM

O=C(c1ncc(NS(=O)(=O)c2cccc3cccnc23)cn1)N1CCC(O)(c2ccccc2)CC1 [Compound 323]
AC50 [3]: > 10000 nM

Cc1nc2c(S(=O)(=O)Nc3ccc(C(=O)N4CCC(O)(c5ccccc5Cl)CC4)cc3)cccc2s1 [Compound 293]
AC50 [1]: 1010 to 10000 nM
AC50 [2]: 101 to 1000 nM
AC50 [3]: 101 to 1000 nM

O=C(c1ccc(NS(=O)(=O)c2cccc3nsnc23)cc1)N1CCC(O)(c2ccccc2)CC1 [Compound 294]
AC50 [1]: > 10000 nM
AC50 [2]: 1010 to 10000 nM
AC50 [3]: 1010 to 10000 nM

O=C(c1ccc(NS(=O)(=O)c2ccccc2C(F)(F)F)cc1)N1CCC(O)(Cc2ccccc2)CC1 [Compound 297]
AC50 [1]: 1010 to 10000 nM
AC50 [2]: 1010 to 10000 nM
AC50 [3]: 1010 to 10000 nM

CC(F)(F)CC1(O)CCN(C(=O)c2ccc(NS(=O)(=O)c3cccc4scnc34)cc2)CC1 [Compound 413]
AC50 [1]: 101 to 1000 nM
AC50 [2]: 101 to 1000 nM
AC50 [3]: 101 to 1000 nM

CC(C)CC1(O)CCN(C(=O)c2ccc(NS(=O)(=O)c3cccn4ccnc34)cc2)CC1 [Compound 312]
AC50 [1]: > 10000 nM
AC50 [2]: 1010 to 10000 nM
AC50 [3]: 1010 to 10000 nM

CC1(CC2(O)CCN(C(=O)c3ccc(NS(=O)(=O)c4cccc5scnc45)cc3)CC2)CC1 [Compound 132, N-(4-(4-hydroxy-4-((1-methylcyclopropyl)methyl)piperidine-1-carbonyl)phenyl)benzo[d]thiazole-4-sulfonamide]
AC50 [1]: < 100 nM
AC50 [2]: < 100 nM
AC50 [3]: < 100 nM

O=C(c1ccc(NS(=O)(=O)c2cccc3cccnc23)cc1)N1CCC(O)(c2cccc3c2OCCO3)CC1 [Compound 284]
AC50 [1]: 1010 to 10000 nM
AC50 [2]: 101 to 1000 nM
AC50 [3]: 101 to 1000 nM

O=C(c1ccc(NS(=O)(=O)c2cccc3nccnc23)c(F)c1)N1CCC(O)(c2ccccc2Cl)CC1 [Compound 251, N-(4-(4-(2-chlorophenyl)-4-hydroxypiperidine-1-carbonyl)-2-fluorophenyl)quinoxaline-5-sulfonamide]
AC50 [1]: 101 to 1000 nM
AC50 [2]: 101 to 1000 nM
AC50 [3]: 101 to 1000 nM

O=C(c1ccc(NS(=O)(=O)c2cccc3cccnc23)c(OC(F)(F)F)c1)N1CCC(O)(c2ccccc2Cl)CC1 [Compound 270]
AC50 [1]: 1010 to 10000 nM
AC50 [2]: 101 to 1000 nM
AC50 [3]: 101 to 1000 nM

N#Cc1cc(NS(=O)(=O)c2cccc3cccnc23)ccc1C(=O)N1CCC(O)(c2ccccc2)CC1 [Compound 261, N-(3-cyano-4-(4-hydroxy-4-phenylpiperidine-1-carbonyl)phenyl)quinoline-8-sulfonamide]
AC50 [1]: 101 to 1000 nM
AC50 [2]: 101 to 1000 nM
AC50 [3]: 101 to 1000 nM

O=C(c1ccc(NS(=O)(=O)c2ccc(F)c3cccnc23)cc1)N1CCC(O)(c2cccc(F)c2F)CC1 [Compound 227, N-(4-(4-(2,3-difluorophenyl)-4-hydroxypiperidine-1-carbonyl)phenyl)-5-fluoroquinoline-8-sulfonamide]
AC50 [1]: 101 to 1000 nM
AC50 [2]: 101 to 1000 nM
AC50 [3]: 101 to 1000 nM

O=C(c1ccc(N[S+]([O-])c2cccc3cccnc23)cc1)N1CCC(O)(c2ccccc2Cl)CC1 (stereo not drawn) [Compound 311]
AC50 [1]: > 10000 nM
AC50 [2]: 1010 to 10000 nM
AC50 [3]: 1010 to 10000 nM

N#Cc1cc(C(=O)N2CCC(O)(c3ccccc3Cl)CC2)ccc1NS(=O)(=O)c1cccc2cccnc12 [Compound 273]
AC50 [1]: 1010 to 10000 nM
AC50 [2]: 101 to 1000 nM
AC50 [3]: 101 to 1000 nM

O=C(c1ccc(NS(=O)(=O)c2ccc(F)c3cccnc23)cc1)N1CCC(O)(Cc2ccccc2C(F)(F)F)CC1 [Compound 208, 5-fluoro-N-(4-(4-hydroxy-4-(2-(trifluoromethyl)benzyl)piperidine-1-carbonyl)phenyl)quinoline-8-sulfonamide]
AC50 [1]: 101 to 1000 nM
AC50 [2]: < 100 nM
AC50 [3]: < 100 nM

O=C(c1ccc(NS(=O)(=O)c2cccc3scnc23)cc1)N1CCC(O)(c2ccccc2-c2ccccc2Cl)CC1 [Compound 271]
AC50 [1]: 1010 to 10000 nM
AC50 [2]: 101 to 1000 nM
AC50 [3]: 101 to 1000 nM

O=C(c1ccc(NS(=O)(=O)c2cccc(C(F)(F)F)c2)cc1)N1CCC(O)(Cc2ccccc2)CC1 [Compound 287]
AC50 [2]: 1010 to 10000 nM
AC50 [3]: 101 to 1000 nM

O=C(c1ccc(NS(=O)(=O)c2cccc3cccnc23)cc1)N1CCC(O)(CN2CCCC2)CC1 [Compound 327]
AC50 [2]: 1010 to 10000 nM

O=C(c1ccc(NS(=O)(=O)c2cccc3cnccc23)cc1)N1CCC(O)(c2ccccc2)CC1 [Compound 319]
AC50 [2]: > 10000 nM
AC50 [3]: > 10000 nM

CC(F)(F)CCC1(O)CCN(C(=O)c2ccc(NS(=O)(=O)c3cccc4scnc34)cc2)CC1 [Compound 440]
AC50 [1]: 101 to 1000 nM
AC50 [2]: 101 to 1000 nM

N#Cc1cccc(S(=O)(=O)Nc2ccc(C(=O)N3CCC(O)(Cc4ccccc4)CC3)cc2)c1 [Compound 317]
AC50 [3]: > 10000 nM

CCOC(=O)C1(Cc2ccccc2)CCN(C(=O)c2ccc(NS(=O)(=O)c3cccc4cccnc34)cc2)CC1 [Compound 330]
AC50 [1]: 1010 to 10000 nM
AC50 [2]: 101 to 1000 nM

CN(C)CC1(O)CCN(C(=O)c2ccc(NS(=O)(=O)c3cccc4cccnc34)cc2)CC1 [Compound 301]
AC50 [2]: 1010 to 10000 nM
AC50 [3]: 1010 to 10000 nM

O=C(c1ccc(NS(=O)(=O)c2ccc3c(c2)OCO3)cc1)N1CCC(O)(Cc2ccccc2)CC1 [Compound 288]
AC50 [2]: 1010 to 10000 nM
AC50 [3]: 101 to 1000 nM

O=C(c1ccc(NS(=O)(=O)c2ccc(Cl)cc2)cc1)N1CCC(O)(Cc2ccccc2)CC1 [Compound 299]
AC50 [3]: 1010 to 10000 nM

CC(C)CC1(O)CCN(C(=O)c2ccc(NS(=O)(=O)c3cccc4cncnc34)cc2)CC1 [Compound 441]
AC50 [1]: 1010 to 10000 nM
AC50 [2]: 101 to 1000 nM

O=C(c1ccc(NS(=O)(=O)c2cccnc2)cc1)N1CCC(O)(Cc2ccccc2)CC1 [Compound 315]
AC50 [2]: > 10000 nM
AC50 [3]: 1010 to 10000 nM

CC(C)CC1(O)CCN(C(=O)c2ccc(NS(=O)(=O)c3cccc4snnc34)cc2)CC1 [Compound 419]
AC50 [2]: > 10000 nM
AC50 [3]: > 10000 nM

O=C(c1ccc(NS(=O)(=O)c2cccc3nonc23)cc1)N1CCC(O)(Cc2ccccc2)CC1 [Compound 310]
AC50 [2]: 1010 to 10000 nM
AC50 [3]: 1010 to 10000 nM
